In patent US11702546B2, “Near-infrared heptamethine dyes for generation of singlet oxygen” (California Institute of Technology, priority 2018, dated 2023):
Entries after “also recorded” stand apart in the source; their conditions may differ.

Key:
[1] = Stability and solubility observations of the dye; format: physicochemical
[2] = Irradiation experiments with singlet oxygen trap DPBF (NIR laser, absorbance readout vs dark control); format: physicochemical; settings: for change in DPBF signal after irradiation: 980 nm laser, 1 W cm-2, CDCl3, 30 minutes, relative to dark control
Method: (§1) IR-1061 tetrafluoroborate and dry pyridine were purchased from commercial sources and used as supplied. Deuterated chloroform was purchased from commercial sources and filtered through a neutral alumina plug prior to use to neutralize and dry the solvent. Irradiations at 980 nm were performed using a 1 watt/cm^2 infrared diode laser at 980 nm coupled to a PSU-III-FDA power supply. Irradiations at 1064 nm were performed using an Nd:YAG laser at 1.8 W/cm^2. Absorbance spectra were obtained using an Agilent CARY 60 UV-Vis for spectra below 1000 nm, and a Cary 5000 UV-VIS-NIR for spectra above 1000 nm. Mass spectrometry characterization was performed via MALDI using a BRUKER MALDI/TOF Autoflex Speed and a Waters LCT Premier XE Electrospray TOF. 1H NMR spectra were obtained using a Varian 600 MHz Spectrometer.
Dye was dissolved in deuterated solvent at a concentration that would produce an absorbance near 1 at 980 nm. This was calculated using extinction coefficients determined by absorbance measurements of the dye alone. The IR-1061-acridinium irradiation in water was an exception, as the concentration was kept lower to ensure solubility. Dye solution was split into two aliquots and added to two 1 cm by 1 cm quartz cuvettes purchased from Starna. The absorption spectra were taken for both cuvettes (to ensure the pre-irradiation sample looked the same in both cases), and subsequently one cuvette was irradiated while the other was kept in the dark. A stir bar was used to ensure proper mixing during irradiation. After irradiation, the absorbance of both solutions was again evaluated. […] For the 1064 nm irradiation, the dye was dissolved at a slightly higher concentration to an absorbance of approximately 1.5 at 1064 nm and irradiated for 5 minutes. At this point significant photobleaching of the dye was observed, so additional irradiation was not performed.
The freeze-pump-thaw (FPT) experiment was carried out as follows. Dye was dissolved in deuterated chloroform and added to a FPT that apparatus. Three consecutive freeze-pump-thaw cycles were carried out to a pressure of less than […], at which point the solution was transferred under vacuum to the arm of the apparatus containing a fused 1 cm by 1 cm quartz cuvette (Starna). Irradiation and subsequent absorption measurements were carried out in the sealed cuvette.
The pyridine addition reaction was extremely sensitive to water, but gave good conversion using dry pyridine. […] Despite this inconvenience, the slightly impure dye was used as a proof of principle. For initial singlet oxygen generation experiments, the dye was dissolved in CDCl3—the solvent in which it had the highest solubility—and irradiated using a 1 Wcm^−2 980 nm laser in the presence of a singlet oxygen trap, diphenylisobenzofuran (DPBF). DPBF was selected as a trap because it is a standard in the field and because other popular detectors (such as singlet oxygen sensor green, SOSG) led to precipitation of IR-1061-pyridinium over time.

[3] = in chloroform, irradiation at 365 nm; cited from earlier work
[4] = Comparative quantum yield experiments (DPBF bleaching vs phenalenone); format: physicochemical; settings: chloroform; for percent decrease in DPBF signal at 415 nm: 30 seconds; for relative quantum yield of singlet oxygen generation: 1064 nm, relative to phenalenone, corrected for photon flux
From the text: Phenalenone, a highly efficient singlet oxygen generator with a known singlet oxygen quantum yield of 0.97 in chloroform was used to benchmark the efficiency of IR-1061-acridinium singlet oxygen generation in chloroform. A solution of phenalenone at an absorbance of 0.30 at 365 nm was generated that also contained DPBF at an absorbance of approximately 1.0. This solution was irradiated for 30 seconds using a 365 nm variable power LED (3-300 mW, Thor labs) at 30 mW/cm^2. The percent decrease in DPBF signal at 415 nm was calculated, taking into account any background from phenalenone. This was done in triplicate. A similar experiment was then run using IR-1061-acridinium. A solution containing the dye at an absorbance of 0.30 at 1064 and DPBF at an absorbance of approximately 1.0 was irradiated for 30 seconds using a 1064 nm Nd:YAG laser with a power output of 1.8 W/cm^2. The percent decrease in DPBF signal at 415 nm was then calculated, taking into account any background from IR-1061-acridinium. This was also done in triplicate.
The percent decrease attributed to phenalenone was calculated to be 0.53 and the percent decrease attributed to IR-1061-acridinium was calculated to be 0.29. To account for the difference in photon flux at these two wavelengths, the ratio of the photon flux was calculated, where the photon flux was described by the following equation: PF=I*λ/(h*c*Na). PF stands for photon flux, I is the irradiation intensity, λ is the irradiation wavelength, his Planck's constant, c is the speed of light and Na is Avogadro's number. The ratio of the photon flux was simplified to PFR=(IPhe*λPhe)/(IIR*λIr)=(0.03 W/cm^2*365 nm)/(1.8 W/cm^2*1064 nm)=0.006. Considering this difference in photon flux and phenalenone's known quantum yield of singlet oxygen generation of 0.97, this yielded a relative quantum yield of about 0.003, or 0.3%.

NIR absorbance spectrum = format: physicochemical; parameters: dose or concentration left out as unconfirmed; settings: CDCl3
Method: as §1

[5] = 980 nm, D2O with DMSO-D6 for solubility
[6] = 1064 nm laser, 1.8 W cm-2, CDCl3, 5 minutes

With `C(/C=C1\CCCC(/C=C/c2cc(-c3ccccc3)[s+]c(-c3ccccc3)c2)=C1[n+]1c2ccccc2cc2ccccc21)=C1C=C(c2ccccc2)SC(c2ccccc2)=C1` [IR-1061-acridinium BArF] the “solubility after counterion exchange BF4- to BArF-” value ([1]; compared with BF4- salt) was “increase in solubility” and the “photosensitization capability after counterion exchange BF4- to BArF-” value ([2]; 980 nm, CDCl3, compared with tetrafluoroborate salt) was “marked decrease in photosensitization capability; also recorded: Reactivity was significantly reduced”.
In the case of `C(/C=C1\CCCC(/C=C/c2cc(-c3ccccc3)[s+]c(-c3ccccc3)c2)=C1[n+]1ccccc1)=C1C=C(c2ccccc2)SC(c2ccccc2)=C1` [IR-1061-pyridinium], the “stability to hydration during purification” value ([1]; all evaluated purification conditions) is reported as “too sensitive to isolate in pure form due to hydration” and the “change in DPBF signal after irradiation” value [2] is reported as “significant decrease in the DPBF signal”.
For `ClC1=C(/C=C/c2cc(-c3ccccc3)[s+]c(-c3ccccc3)c2)CCC/C1=C\C=C1C=C(c2ccccc2)SC(c2ccccc2)=C1` [IR-1061, reference compound], the “change in DPBF signal after irradiation” value [2] was “no significant changes in DPBF signal”.
In the case of `O=C1C=Cc2cccc3cccc1c23` [phenalenone, reference compound], the “known singlet oxygen quantum yield” value [3] is given as 0.97 and the “percent decrease in DPBF signal at 415 nm” value ([4]; 365 nm LED at 30 mW/cm2, absorbance 0.30 at 365 nm, triplicate) is given as 0.53.
In the case of `C(/C=C1\CCCC(/C=C/c2cc(-c3ccccc3)[s+]c(-c3ccccc3)c2)=C1[n+]1c2ccccc2cc2ccccc21)=C1C=C(c2ccccc2)SC(c2ccccc2)=C1` [IR-1061-acridinium], the “effect of introduction of protein (BSA)” value ([1]; BSA added) is reported as “precipitation of the dye”, the “change in DPBF signal after irradiation” value [2] is reported as “significant DPBF photobleaching was observed only after 30 minutes” and the “DPBF degradation rate in water” value [2, 5] is reported as “comparable to those seen in chloroform”. The “photobleaching of the dye in water” value [2, 5] was “high levels of photobleaching”, the “singlet oxygen generation in nonpolar solvents” value ([2]; 980 nm, deuterated nonpolar solvents such as toluene) was “no singlet oxygen generation was observed” and the “DPBF degradation in polar aprotic solvents” value ([2]; 980 nm, deuterated polar aprotic solvents such as DMSO) was “decreased DPBF degradation”. The “change in DPBF signal, freeze-pump-thawed sample devoid of oxygen” value ([2]; 980 nm, freeze-pump-thawed CDCl3) was “no change in DPBF signal”, the “DPBF photobleaching after irradiation” value [2, 6] was “near complete photobleaching of DPBF; also recorded: Rapid bleaching of both the dye and DPBF signal” and the “bleaching of the dye during irradiation” value [2, 6] was “significant bleaching of the dye”. The “λmax of NIR absorbance” value (NIR absorbance spectrum) was 1078, the “relative quantum yield of singlet oxygen generation” value [4] was “about 0.003” and the “relative quantum yield of singlet oxygen generation” value ([4]; approximate) was roughly 0.3%. The “percent decrease in DPBF signal at 415 nm” value ([4]; 1064 nm Nd:YAG laser at 1.8 W/cm2, absorbance 0.30 at 1064, triplicate) was 0.29.
